# Reference: US20230310388A1, “Methods and Compositions for Treating Fungal Infections” (Neoculi Pty Ltd, priority 2020, published 2023)
# Values joined by “and” are separate entries in the source; they are usually repeats but may differ in a detail not shown here. Equal values may be shown once.
# Tested on: Candida albicans ATCC14053
# Assay: Broth micro-dilution screen at 16 μg/mL and MIC (Example 9)
# Format: cell-based
# Settings: C. albicans ATCC14053; test range 0.25-64 μg/mL; duplicate
# Description: The antifungal activity of 201 NCL analogs against Candida albicans ATCC14053 in vitro was investigated. A broth micro-dilution method was used, according to CLSI guidelines as described. NCL analogs were dissolved in DMSO and originally screened at a single concentration of 16 μg/mL.
row,SMILES,MIC
1,CCCc1ccc(C=NNC(=N)NN=Cc2ccc(CCC)cc2)cc1.Cl [NCL121],4 µg/mL and 8 µg/mL
2,Cl.N=C(NN=Cc1ccc(F)c(F)c1)NN=Cc1ccc(F)c(F)c1 [NCL123],1 µg/mL
3,C#Cc1cccc(C=NNC(=N)NN=Cc2cccc(C#C)c2)c1.Cl [NCL126],4 µg/mL
4,Cl.N=C(NN=Cc1ccc(Br)cc1)NN=Cc1ccc(Br)cc1 [NCL134],<1 µg/mL
5,CSc1ccc(C=NNC(=N)NN=Cc2ccc(SC)cc2)cc1.Cl [NCL140],1 µg/mL and 2 µg/mL
6,Cl.N=C(NN=Cc1ccc2[nH]ccc2c1)NN=Cc1ccc2[nH]ccc2c1 [NCL146],4 µg/mL and 8 µg/mL
7,COc1ccc(C=CC=NNC(=N)NN=CC=Cc2ccc(OC)cc2)cc1.Cl [NCL150],1 µg/mL
8,Cl.N=C(NN=Cc1ccc(OC(F)(F)F)cc1)NN=Cc1ccc(OC(F)(F)F)cc1 [NCL160],1 µg/mL and 2 µg/mL
9,Cl.N=C(NN=Cc1ccc(Cl)cc1F)NN=Cc1ccc(Cl)cc1F [NCL216],>64 µg/mL
10,C/C(=N\NC(=N)N/N=C(\C)c1ccc(C)cc1)c1ccc(C)cc1.Cl [NCL217],4 µg/mL

# Same assay, conditions: single concentration 16 μg/mL; Growth or No growth of C. albicans ATCC14053
row,SMILES,Screen at 16 μg/mL
1,CCCc1ccc(C=NNC(=N)NN=Cc2ccc(CCC)cc2)cc1.Cl [NCL121],No growth
2,Cl.N=C(NN=Cc1ccc(O)c([N+](=O)[O-])c1)NN=Cc1ccc(O)c([N+](=O)[O-])c1 [NCL122],Growth
3,Cl.N=C(NN=Cc1ccc(F)c(F)c1)NN=Cc1ccc(F)c(F)c1 [NCL123],No growth
4,Cl.N=C(NN=Cc1c(O)ccc2ccccc12)NN=Cc1c(O)ccc2ccccc12 [NCL124],Growth
5,COc1ccc(C=NNC(=N)NN=Cc2ccc(OC)c(O)c2)cc1O.Cl [NCL125],Growth
6,C#Cc1cccc(C=NNC(=N)NN=Cc2cccc(C#C)c2)c1.Cl [NCL126],No growth
7,Cl.N=C(NN=Cc1ccc(Cl)cc1Cl)NN=Cc1ccc(Cl)cc1Cl [NCL127],Growth
8,Cl.N=C(NN=Cc1ccccc1Br)NN=Cc1ccccc1Br [NCL129],Growth
9,COc1cc(C=NNC(=N)NN=Cc2cc(Br)c(OC)c(OC)c2)cc(Br)c1OC.Cl [NCL130],Growth
10,Cl.N=C(NN=Cc1cccc(Br)c1)NN=Cc1cccc(Br)c1 [NCL131],Growth
11,Cl.N=C(NN=CC1=C(Cl)c2cc(F)ccc2OC1)NN=CC1=C(Cl)c2cc(F)ccc2OC1 [NCL132],Growth
12,Cl.N=C(NN=Cc1cc(Br)co1)NN=Cc1cc(Br)co1 [NCL133],Growth
13,Cl.N=C(NN=Cc1ccc(Br)cc1)NN=Cc1ccc(Br)cc1 [NCL134],No growth
14,CCCCc1ccc(C=NNC(=N)NN=Cc2ccc(CCCC)cc2)cc1.Cl [NCL136],Growth
15,Cl.N=C(NN=Cc1c(Cl)cccc1Cl)NN=Cc1c(Cl)cccc1Cl [NCL137],Growth
16,Cl.N=C(NN=CC(=Cc1ccccc1)c1ccccc1)NN=CC(=Cc1ccccc1)c1ccccc1 [NCL138],Growth
17,CSc1ccc(C=NNC(=N)NN=Cc2ccc(SC)cc2)cc1.Cl [NCL140],No growth
18,CC(=NNC(=N)NN=C(C)c1ccccc1)c1ccccc1.Cl [NCL143],Growth
19,Cl.N=C(NN=Cc1ccc(Br)o1)NN=Cc1ccc(Br)o1 [NCL144],Growth
20,Cl.N=C(NN=Cc1ccc(Cl)o1)NN=Cc1ccc(Cl)o1 [NCL145],Growth
21,Cl.N=C(NN=Cc1ccc2[nH]ccc2c1)NN=Cc1ccc2[nH]ccc2c1 [NCL146],No growth
22,Cl.N=C(NN=Cc1cnc2ccccc2n1)NN=Cc1cnc2ccccc2n1 [NCL147],Growth
23,Cl.N=C(NN=Cc1ccc(C=CC(=O)O)cc1)NN=Cc1ccc(C=CC(=O)O)cc1 [NCL148],Growth
24,Cl.N=C(NN=Cc1ccncc1)NN=Cc1ccncc1 [NCL149],Growth
25,COc1ccc(C=CC=NNC(=N)NN=CC=Cc2ccc(OC)cc2)cc1.Cl [NCL150],No growth

row,SMILES,Screen at 16 μg/mL
1,Cl.N=C(NN=Cc1ccc(O)cc1)NN=Cc1ccc(O)cc1 [NCL151],Growth
2,Cc1cccc(C=NNC(=N)NN=Cc2cccc(C)c2O)c1O.Cl [NCL152],Growth
3,CCC(=NNC(=N)NN=C(CC)c1ccc(Cl)cc1)c1ccc(Cl)cc1.Cl [NCL153],Growth
4,CCCCC(=NNC(=N)NN=C(CCCC)c1ccc(Cl)cc1)c1ccc(Cl)cc1.Cl [NCL154],Growth
5,CC(=NNC(=N)NN=C(C)c1ccc(Br)cc1)c1ccc(Br)cc1.Cl [NCL155],Growth
6,CCCC(=NNC(=N)NN=C(CCC)c1ccc(Cl)cc1)c1ccc(Cl)cc1.Cl [NCL156],Growth
7,Cl.N=C(NN=Cc1ccc(OC(F)(F)F)cc1)NN=Cc1ccc(OC(F)(F)F)cc1 [NCL160],No growth
8,CCO/C(N)=N/N=C(\C)c1ccc(Cl)cc1 [NCL162],Growth
9,Cl.N=C(NN=C1C(=O)Nc2ccccc21)NN=C1C(=O)Nc2ccccc21 [NCL163],Growth
10,Cl.N=C(NN=Cc1ccc(SC(F)(F)F)cc1)NN=Cc1ccc(SC(F)(F)F)cc1 [NCL166],Growth
11,Cl.N=C(NN=C(C(=O)O)c1ccccc1)NN=C(C(=O)O)c1ccccc1 [NCL167],Growth
12,CC(=O)Nc1cc(Cl)ccc1C=NNC(=N)NN=Cc1ccc(Cl)cc1NC(C)=O [NCL170],Growth
13,CC(=NNC(=N)NN=C(C)c1ccccn1)c1ccccn1.Cl [NCL172],Growth
14,Cl.N=C(NN=Cc1cnccc1Cl)NN=Cc1cnccc1Cl [NCL175],Growth
15,Cl.N=C(NN=C(CO)c1ccc(Cl)cc1)NN=C(CO)c1ccc(Cl)cc1 [NCL177],Growth
16,CC(=NNc1cc(NN=C(C)c2ccc(Cl)cc2)ncn1)c1ccc(Cl)cc1 [NCL178],Growth
17,Nc1nc(NN=Cc2ccc(Cl)cc2)cc(NN=Cc2ccc(Cl)cc2)n1 [NCL179],Growth
18,CC(Nc1cc(NC(C)c2ccccc2)nc(N)n1)c1ccccc1 (centres unmarked) [NCL184],Growth
19,CC(=NNc1cc(NN=C(C)c2ccc(Cl)cc2)ncn1)c1ccc(Cl)cc1.Cl [NCL185],Growth
20,Cl.Clc1ccc(/C=N/Nc2cc(N/N=C/c3ccc(Cl)cc3)ncn2)cc1 [NCL187],Growth
21,CCCCC(=NNC(=N)N)c1ccc(Cl)cc1.Cl [NCL188],Growth
22,Cl.OCC(=NNc1cc(NN=C(CO)c2ccc(Cl)cc2)ncn1)c1ccc(Cl)cc1 [NCL189],Growth
23,Cl.N=C(N)NN=C(CNN)c1ccc(Cl)cc1 [NCL190],Growth
24,Cl.N=C(N)N/N=C(\C(=O)O)c1ccccc1 [NCL192],Growth
25,Nc1nc(NN=Cc2ccc(Br)cc2)cc(NN=Cc2ccc(Br)cc2)n1 [NCL193],Growth

row,SMILES,Screen at 16 μg/mL
1,Nc1nc(NN=Cc2ccc(O)cc2)cc(NN=Cc2ccc(O)cc2)n1 [NCL196],Growth
2,Nc1nc(NN=Cc2cccc(O)c2)cc(NN=Cc2cccc(O)c2)n1 [NCL197],Growth
3,CC(C)(C)c1ccc(C=NNc2cc(NN=Cc3ccc(C(C)(C)C)cc3)nc(N)n2)cc1.Cl.Cl [NCL198],Growth
4,Nc1nc(NN=Cc2ccccc2)cc(NN=Cc2ccccc2)n1 [NCL199],Growth
5,CN(C)c1ccc(C=NNc2cc(NN=Cc3ccc(N(C)C)cc3)nc(N)n2)cc1 [NCL201],Growth
6,Nc1nc(NN=Cc2ccccc2O)cc(NN=Cc2ccccc2O)n1 [NCL202],Growth
7,Cl.Cl.Nc1nc(NN=CC2CCCCC2)cc(NN=CC2CCCCC2)n1 [NCL203],Growth
8,CC(=NNc1cc(NN=C(C)c2ccc(Cl)cc2)nc(N)n1)c1ccc(Cl)cc1 [NCL204],Growth
9,Nc1nc(NN=Cc2ccccc2Cl)cc(NN=Cc2ccccc2Cl)n1 [NCL205],Growth
10,Cc1ccc(C=NNc2nc(N)nc(NN=Cc3ccc(C)cc3)n2)cc1 [NCL206],Growth
11,Nc1nc(NN=Cc2ccccc2O)nc(NN=Cc2ccccc2O)n1 [NCL207],Growth
12,CC(=NNc1nc(N)nc(NN=C(C)c2ccc(Cl)cc2)n1)c1ccc(Cl)cc1 [NCL208],Growth
13,Nc1nc(NN=Cc2ccc(O)cc2)nc(NN=Cc2ccc(O)cc2)n1 [NCL211],Growth
14,Nc1nc(NN=Cc2ccc(Br)cc2)nc(NN=Cc2ccc(Br)cc2)n1 [NCL212],Growth
15,Nc1nc(NN=CC2CCCCC2)nc(NN=CC2CCCCC2)n1 [NCL213],Growth
16,Nc1nc(NN=Cc2ccccc2)nc(NN=Cc2ccccc2)n1 [NCL214],Growth
17,CC(=NNC(=N)NN=C(C)c1ccc(Cl)cc1F)c1ccc(Cl)cc1F.Cl [NCL215],Growth
18,Cl.N=C(NN=Cc1ccc(Cl)cc1F)NN=Cc1ccc(Cl)cc1F [NCL216],Growth
19,C/C(=N\NC(=N)N/N=C(\C)c1ccc(C)cc1)c1ccc(C)cc1.Cl [NCL217],No growth
20,Nc1nc(NN=Cc2ccc(C(F)(F)F)cc2)cc(NN=Cc2ccc(C(F)(F)F)cc2)n1 [NCL221],Growth
21,Nc1nc(N/N=C/c2ccc(F)c(F)c2)cc(N/N=C/c2ccc(F)c(F)c2)n1 [NCL222],Growth
22,CC(=O)Nc1ccc(C=NNc2cc(NN=Cc3ccc(NC(C)=O)cc3)nc(N)n2)cc1 [NCL223],Growth
23,CCOC(=O)N(/N=C/c1ccc(Cl)cc1)C(=N)N/N=C/c1ccc(Cl)cc1 [NCL224],Growth
